In PubChem BioAssay AID248 (DTP/NCI, 2004):
“And” between values parts separate entries of the source, which are not always exact repeats. Equal values may be shown once. Toxic doses and inconclusive results are not listed. Rule as the data show it: active = T/C of 150% or more; inactive = T/C below 125%.

Test system: L1210 leukemia ip in BDF1 mice, survival T/C
Experiment: NCI In Vivo Anticancer Drug Screen. Data for tumor model L1210 Leukemia (intraperitoneal) in B6D2F1 (BDF1) mice
Settings: endpoint: mean survival time, higher = longer survival
Summary of the method: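 Each compound was tested against a transplantable tumor grown in mice. The endpoint was survival, with treated animals benchmarked against vehicle controls as a simple ratio.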

[1] = dose: 100.0 mg/kg/injection, schedule: Q01DX001 (ip), vehicle: saline
[2] = dose: 200.0 mg/kg/injection, schedule: Q01DX001 (ip), vehicle: saline
[3] = dose: 400.0 mg/kg/injection, schedule: Q01DX001 (ip), vehicle: saline
[4] = dose: 100.0 mg/kg/injection, schedule: Q01DX009 (ip), vehicle: Klucel (hydroxypropylcellulose) (HPC)
[5] = dose: 100.0 mg/kg/injection, schedule: Q04DX003 (ip), vehicle: Klucel (hydroxypropylcellulose) (HPC)
[6] = dose: 200.0 mg/kg/injection, schedule: Q01DX009 (ip), vehicle: Klucel (hydroxypropylcellulose) (HPC)
[7] = dose: 200.0 mg/kg/injection, schedule: Q04DX003 (ip), vehicle: Klucel (hydroxypropylcellulose) (HPC)
[8] = dose: 400.0 mg/kg/injection, schedule: Q01DX009 (ip), vehicle: Klucel (hydroxypropylcellulose) (HPC)
[9] = dose: 400.0 mg/kg/injection, schedule: Q04DX003 (ip), vehicle: Klucel (hydroxypropylcellulose) (HPC)
[10] = dose: 100.0 mg/kg/injection, schedule: Q01DX009 (ip), vehicle: saline with Tween-80
[11] = dose: 200.0 mg/kg/injection, schedule: Q01DX009 (ip), vehicle: saline with Tween-80
[12] = dose: 400.0 mg/kg/injection, schedule: Q01DX009 (ip), vehicle: saline with Tween-80
[13] = dose: 50.0 mg/kg/injection, schedule: Q01DX009 (ip), vehicle: saline with Tween-80
[14] = dose: 50.0 mg/kg/injection, schedule: Q01DX001 (ip), vehicle: saline
[15] = dose: 100.0 mg/kg/injection, schedule: Q04DX003 (ip), vehicle: saline
[16] = dose: 200.0 mg/kg/injection, schedule: Q04DX003 (ip), vehicle: saline
[17] = dose: 400.0 mg/kg/injection, schedule: Q04DX003 (ip), vehicle: saline
[18] = dose: 100.0 mg/kg/injection, schedule: Q01DX001 (ip), vehicle: saline with Tween-80
[19] = dose: 200.0 mg/kg/injection, schedule: Q01DX001 (ip), vehicle: saline with Tween-80
[20] = dose: 400.0 mg/kg/injection, schedule: Q01DX001 (ip), vehicle: saline with Tween-80

Measured: T/C

O=S1(=O)CCCCC1Cl (configuration not stated)
inactive: dose: 38.0 mg/kg/injection, schedule: Q01DX009 (ip), vehicle: other 96 % of control | dose: 75.0 mg/kg/injection, schedule: Q01DX001 (ip), vehicle: other 100 % of control | dose: 75.0 mg/kg/injection, schedule: Q01DX009 (ip), vehicle: other 89 % of control | dose: 75.0 mg/kg/injection, schedule: Q04DX003 (ip), vehicle: other 98 % of control | dose: 150.0 mg/kg/injection, schedule: Q01DX001 (ip), vehicle: other 100 % of control | dose: 150.0 mg/kg/injection, schedule: Q01DX009 (ip), vehicle: other 91 % of control | dose: 150.0 mg/kg/injection, schedule: Q04DX003 (ip), vehicle: other 98 % of control | dose: 300.0 mg/kg/injection, schedule: Q01DX001 (ip), vehicle: other 103 % of control

COc1cc(C)c2c(c1OC)C(=O)CC2
inactive: [1] 94 % of control | [2] 105 % of control | [3] 88 % of control

O=C1c2c(O)ccc([N+](=O)[O-])c2C(=O)c2c([N+](=O)[O-])ccc(O)c21
inactive: [4] 93 % of control | [5] 106 % of control | [6] 105 % of control | [7] 95 % of control | [8] 103 % of control | [9] 95 % of control

O=c1[nH]c(=S)[nH]c(Cc2ccccc2)c1CCO
inactive: [10] 96 % of control | [11] 108 % of control | [12] 96 % of control

N#CCCC1=C(O)CCCC1=O
inactive: [13] 93 % of control | [10] 93 % of control | [11] 97 % of control

O=C(Nc1cc(C(F)(F)F)ccc1Cl)Nc1ccc(Cl)cc1[N+](=O)[O-]
inactive: [4] 93 % of control | [6] 87 % of control | [8] 100 % of control

O=C(O)c1csnn1
inactive: [1] 102 % of control | [2] 97 % of control | [3] 103 % of control

N#CC1c2ccccc2C=CN1C(=O)CCBr (configuration not stated)
inactive: [10] 112 % of control | [11] 102 % of control | [12] 96 % of control

Cc1ncc(CO)c(COCCC(C)C)c1O
inactive: dose: 100.0 mg/kg/injection, schedule: Q04DX002 (ip), vehicle: saline 95 % of control | dose: 200.0 mg/kg/injection, schedule: Q04DX002 (ip), vehicle: saline 98 % of control

Cc1nc(N)[nH]c(=O)c1N=Nc1ccc(S(=O)(=O)O)cc1
inactive: [14] 98 % of control | [1] 98 % of control | [2] 104 % of control

Nc1cc(Cl)ccc1[N+](=O)[O-]
inactive: [15] 103 % of control | [16] 95 % of control | [17] 96 % of control

O=c1[nH]c(=O)c2cccnc2[nH]1
inactive: dose: 3.12 mg/kg/injection, schedule: Q01DX009 (ip), vehicle: saline 109 % of control | dose: 6.25 mg/kg/injection, schedule: Q01DX009 (ip), vehicle: saline 107 % of control | dose: 12.5 mg/kg/injection, schedule: Q01DX009 (ip), vehicle: saline 115 % of control | dose: 25.0 mg/kg/injection, schedule: Q01DX001 (ip), vehicle: saline 100 % of control | dose: 25.0 mg/kg/injection, schedule: Q01DX009 (ip), vehicle: saline 108 % of control | [14] 105 % of control | dose: 50.0 mg/kg/injection, schedule: Q01DX009 (ip), vehicle: saline 100 % of control | [1] 98 % of control and 100 % of control | dose: 100.0 mg/kg/injection, schedule: Q01DX009 (ip), vehicle: saline 94 % of control | [2] 98 % of control and 100 % of control

O=C1/C(=C/c2ccncc2)CCc2cc(Cl)ccc21
inactive: dose: 100.0 mg/kg/injection, schedule: Q04DX003 (ip), vehicle: carboxymethylcellulose (CMC) 107 % of control | dose: 200.0 mg/kg/injection, schedule: Q04DX003 (ip), vehicle: carboxymethylcellulose (CMC) 111 % of control | dose: 400.0 mg/kg/injection, schedule: Q04DX003 (ip), vehicle: carboxymethylcellulose (CMC) 96 % of control

C[N+]1(CCCNC(=O)Nc2ccc(Cl)cc2)CCOCC1
inactive: dose: 12.5 mg/kg/injection, schedule: Q04DX002 (ip), vehicle: saline 105 % of control | dose: 25.0 mg/kg/injection, schedule: Q04DX002 (ip), vehicle: saline 102 % of control | dose: 50.0 mg/kg/injection, schedule: Q04DX002 (ip), vehicle: saline 97 % of control

CC(C)N=Cc1cc(I)cc(I)c1O.CC(C)N=Cc1cc(I)cc(I)c1O.[Co]
inactive: [15] 88 % of control | [16] 94 % of control | [17] 102 % of control

FC(F)(F)Cc1cccc(C(F)(F)F)c1
inactive: [18] 113 % of control | [19] 103 % of control | [20] 105 % of control

CC12CCC(C(C(=O)C3C(=O)C4(C)CCC3C4(C)C)C1=O)C2(C)C (configuration not stated)
inactive: dose: 100.0 mg/kg/injection, schedule: Q01DX001 (ip), vehicle: Klucel (hydroxypropylcellulose) (HPC) 102 % of control | dose: 200.0 mg/kg/injection, schedule: Q01DX001 (ip), vehicle: Klucel (hydroxypropylcellulose) (HPC) 103 % of control | dose: 400.0 mg/kg/injection, schedule: Q01DX001 (ip), vehicle: Klucel (hydroxypropylcellulose) (HPC) 113 % of control

CCOC(=O)c1ccc(NC(=O)Nc2cc(OC)ccc2OC)cc1
inactive: dose: 25.0 mg/kg/injection, schedule: Q01DX009 (ip), vehicle: saline with Tween-80 100 % of control and 91 % of control | [13] 95 % of control | [18] 98 % of control | dose: 100.0 mg/kg/injection, schedule: Q04DX002 (ip), vehicle: saline with Tween-80 96 % of control | dose: 100.0 mg/kg/injection, schedule: Q04DX003 (ip), vehicle: saline with Tween-80 96 % of control | [19] 95 % of control | [11] 91 % of control | dose: 200.0 mg/kg/injection, schedule: Q04DX002 (ip), vehicle: saline with Tween-80 100 % of control | [20] 91 % of control | dose: 400.0 mg/kg/injection, schedule: Q04DX002 (ip), vehicle: saline with Tween-80 94 % of control

c1ccc([P+](CCN2CCC([P+](c3ccccc3)(c3ccccc3)c3ccccc3)=N2)(c2ccccc2)c2ccccc2)cc1
inactive: dose: 1.56 mg/kg/injection, schedule: Q04DX003 (ip), vehicle: saline 103 % of control | dose: 3.12 mg/kg/injection, schedule: Q04DX003 (ip), vehicle: saline 105 % of control

N#Cc1cccc(-c2nc3ncnc(N)c3[nH]2)c1
inactive: [5] 94 % of control | [7] 96 % of control | [9] 92 % of control

O=C(C[n+]1ccccc1)c1ccc(S(=O)(=O)c2ccccc2)cc1
inactive: dose: 12.5 mg/kg/injection, schedule: Q04DX003 (ip), vehicle: Klucel (hydroxypropylcellulose) (HPC) 95 % of control | dose: 25.0 mg/kg/injection, schedule: Q04DX003 (ip), vehicle: Klucel (hydroxypropylcellulose) (HPC) 93 % of control | dose: 50.0 mg/kg/injection, schedule: Q04DX003 (ip), vehicle: Klucel (hydroxypropylcellulose) (HPC) 89 % of control | [5] 94 % of control

O=C(O)CCC(=O)c1ccc2ccccc2c1
inactive: [5] 100 % of control | [7] 91 % of control | [9] 92 % of control
